Source: publication PMC9571093, “Synthesis and Characterization of Novel Hydrazone Derivatives of Isonicotinic Hydrazide and Their Evaluation for Antibacterial and Cytotoxic Potential” (Molecules, 2022)
In brackets after ≈: the same amount, converted by molar mass.

Experiments:
[1] = test system: Bacillus subtilis ATCC 11774; experiment: Paper disc diffusion, zone of inhibition; format: cell-based; conditions: disc with 1000 µg mL−1 in DMSO, 37 °C; for zone of inhibition at 1000 µg/mL: Bacillus subtilis, ATCC11774, 24 h
Procedure: (§1) All the synthesized compounds were screened for antibacterial activities using minimum inhibitory concentrations (MIC) and zone of inhibitions against Gram (+)and Gram (−) bacterial strains. ATCC strains of the test microorganism selected for antibacterial assay were Gram-positive bacteria; Staphylococcus aureus ATCC 25923, Bacillus subtilus ATCC 11774, and Gram-negative bacteria; Escherichia coli ATCC 10536. The bacterial strains’ stock cultures were kept in Nutrient agar (Oxoid, UK) at 4 °C and inocula were prepared by transferring several single colonies of microbes to a sterile Mueller Hinton broth. The bacterial cell suspension was mixed until homogeneity to give a final density of 5 × 10^5 cfu/mL
(§2) Preliminary screenings of synthesized compounds were conducted on agar plates using the disc diffusion method. The plates were prepared using Mueller–Hinton agar following the autoclave process (121 °C for 30 min). After cooling, the plates were inoculated with the suspension of microorganisms (S. aureus, B. subtilis and E. coli). The paper discs impregnated with the test compounds (1000 µg mL^−1 in dimethyl sulfoxide) were placed on the solidified medium and incubated at 37 °C for 24 hours before recording the zone of inhibition in millimeters.

[2] = test system: Escherichia coli ATCC 10536; experiment: Paper disc diffusion, zone of inhibition; format: cell-based; conditions: ATCC10536, disc with 1000 µg mL−1 in DMSO, 37 °C, 24 h
Procedure: as §1, §2

[3] = test system: Staphylococcus aureus ATCC 25923; experiment: Paper disc diffusion, zone of inhibition; format: cell-based; conditions: disc with 1000 µg mL−1 in DMSO, 37 °C; for zone of inhibition at 1000 µg/mL: Staphylococcus aureus, ATCC25923, 24 h
Procedure: as §1, §2

[4] = test system: E. coli ATCC 10536; experiment: Tetrazolium (MTT) microplate assay of minimum inhibitory concentration; format: cell-based; conditions: Escherichia coli, ATCC10536
Procedure: as §1
(§3) The minimum inhibitory concentrations of test microorganisms and reference material were determined using the tetrazolium microplate assay method. The assay was performed using a 96-well clear microtiter plate. Freshly harvested bacterial cell and fungal cell suspensions were seeded at 5 × 10^5 cfu/mL in each well of the 96-well plate. Different concentrations, 500 to 10 µg/mL, of the test compounds were diluted in series with Muller–Hinton broth. A volume of 200 µL of each concentration was added in triplicate to the wells and the plates were then incubated for 18–24 h at 37 °C ± 0.5. After incubation, in each well, 50 µL of 3-(4, 5-dimethylthiazol-2-yl)-2, 5-diphenyltetrazolium bromide MTT, having a concentration of 0.2 mg/mL, was added and the plate was incubated at 37 °C for 30 min. An appropriate solvent blank (DMSO) was included as the negative control and the bacterial suspension was included as the positive control. The absorbance was measured at 570 nm with a reference wavelength of 650 nm by adding DMSO using a spectrophotometer and the percentage reduction of the dye (indicating the bacterial growth inhibition) was calculated.

[5] = test system: B. subtilis ATCC 11774; experiment: as above; format: cell-based; conditions: Bacillus subtilis, ATCC11774
Procedure: as §1, §3

[6] = test system: S. aureus ATCC 25923; experiment: as above; format: cell-based; conditions: Staphylococcus aureus, ATCC25923
Procedure: as §1, §3

[7] = Brine shrimp lethality bioassay; format: in vivo, Artemia salina; conditions: Artemia salina (brine shrimp) nauplii, in vivo, other: exposure in sea water containing the compound, 24 h incubation, regression analysis, read-out: LC50 (median lethal concentration)
Procedure: (§4) The cytotoxicities of synthesized hydrazones were recorded by employing an in vitro brine shrimp lethality bioassay technique. The eggs of Artemia salina (brine shrimp) were allowed to incubate at 30 °C for 48 h under a light and dark cycle using artificial sea water before subjecting them to the sample solutions. The hatched larvae (nauplii) were collected with using a Pasteur pipette and were transferred to freshly prepared sea water (commercial salt and double-distilled water). The stock solutions of each compound were prepared at 500 µg/mL concentration in DMSO and sea water at 1:1, and further serial dilutions of 25, 50, 100, 200 and 300 µg/mL were prepared using sea water. Using a 2mL volume from each dilution, sea water containing 10 nauplii was added to a test tube and incubated for 24 h. A solvent mixture with nauplii containing no test compound was used as the control. After due time, the number of nauplii that survived was determined using a magnifying glass. The experiment was performed in triplicate and the median lethal concentration (LC50) ± SEM was calculated using regression analysis.

[8] = test system: Artemia salina (brine shrimp) nauplii; experiment: Brine shrimp lethality bioassay; format: in vivo; conditions: 24 h, concentration not given
Procedure: as §4

Structure (SMILES)	zone of inhibition at 1000 µg/mL [1] [mm]	zone of inhibition at 1000 µg/mL [2] [mm]	zone of inhibition at 1000 µg/mL [3] [mm]	inhibition at 25 µg/mL [4] [%]	inhibition at 50 µg/mL [4] [%]	inhibition at 100 µg/mL [4] [%]	inhibition at 200 µg/mL [4] [%]	inhibition at 25 µg/mL [5] [%]	inhibition at 50 µg/mL [5] [%]	inhibition at 100 µg/mL [5] [%]	inhibition at 200 µg/mL [5] [%]	inhibition at 25 µg/mL [6] [%]	inhibition at 50 µg/mL [6] [%]	inhibition at 100 µg/mL [6] [%]	inhibition at 200 µg/mL [6] [%]	inhibition at 300 µg/mL [5] [%]	inhibition at 400 µg/mL [5] [%]	inhibition at 300 µg/mL [4] [%]	inhibition at 300 µg/mL [6] [%]	inhibition at 400 µg/mL [6] [%]	also measured
NCC[C@H](O)C(=O)N[C@@H]1C[C@H](N)[C@@H](O[C@H]2O[C@H](CN)[C@@H](O)[C@H](O)[C@H]2O)[C@H](O)[C@H]1O[C@H]1O[C@H](CO)[C@@H](O)[C@H](N)[C@H]1O [Amikacin, reference compound]	30	38	24																		
CC1(C)S[C@@H]2[C@H](NC(=O)[C@H](N)c3ccc(O)cc3)C(=O)N2[C@H]1C(=O)O [Amoxicillin, reference compound]				40 ± 0.5	66 ± 0.5	85 ± 0.6	96 ± 1														IC50 ([4]; E. coli, concentration inhibiting 66 ± 0.5%): 50 µg/mL (≈ 137 µM)
CO/N=C(\C(=O)N[C@@H]1C(=O)N2C(C(=O)O)=C(CSc3nc(=O)c(=O)[nH]n3C)CS[C@H]12)c1csc(N)n1 [Ceftriaxone, reference compound]								40 ± 0.5	55 ± 0.7	79 ± 1.2	92 ± 1.2	30 ± 0.8	55 ± 0.3	80 ± 1.2	96 ± 1						IC50 ([5]; B. subtilis, concentration inhibiting 55 ± 0.7%): 50 µg/mL (≈ 90.2 µM); minimum inhibitory concentration ([6]; S. aureus, concentration inhibiting 55 ± 0.3%, read-out: IC50): 50 µg/mL (≈ 90.2 µM)
COc1cc(/C=N/NC(=O)c2ccncc2)ccc1OCC(=O)OC(C)(C)C [NH1, Tert-butyl (E)-2-(4-((2-Isonicotinoylhydrazineylidene)methyl)-2-methoxyphenoxy) Acetate]	14	25	24	9 ± 0.5	18 ± 0.5	40 ± 0.4	60 ± 0.5		5 ± 0.3	26 ± 0.3	44 ± 0.4		10 ± 0.6	25 ± 0.7	55 ± 1	60 ± 0.5	75 ± 0.5	79 ± 1	63 ± 1	69 ± 2	Zone of Inhibition ([3]; 24 h): 20 mm; inhibition at 500 µg/mL ([6]; 500 µg/mL): 80 ± 1.5%
CC(C)(C)OC(=O)COc1ccc(/C=N/NC(=O)c2ccncc2)cc1 [NH2, Tert-butyl (E)-2-(4-((2-Isonicotinoylhydrazineylidene)methyl)phenoxy) Acetate]	14	14	15			10 ± 0.3	25 ± 0.3	4 ± 0.2	12 ± 0.3	22 ± 0.3	44 ± 0.5	11 ± 1	21 ± 1.2	42 ± 2	50 ± 2	60 ± 0.5	81 ± 0.6	55 ± 0.5	63 ± 1.5	74 ± 2	inhibition at 400 µg/mL ([4]; 400 µg/mL): 70 ± 0.3%
COc1cc(/C=N/NC(=O)c2ccncc2)ccc1OCC=C(C)C [NH3, (E)-N′-(3-Methoxy-4-((3-methylbut-2-en-1-yl)oxy)benzylidene)isonicotinohydrazide]	23	33	24		36 ± 0.5	50 ± 0.5	65 ± 0.2	12 ± 0.4	20 ± 0.7	28 ± 0.8	53 ± 0.7	24 ± 0.7	35 ± 1.2	44 ± 2	60 ± 1.5	74 ± 0.9	84 ± 0.9	85 ± 1.2	78 ± 1	89 ± 1.5	Zone of Inhibition ([1]; 24 h): 22 mm; LC50 at 24 h [7]: 240 µg/mL (≈ 707 µM)
CC(C)=CCOc1ccc(/C=N/NC(=O)c2ccncc2)cc1 [NH4, (E)-N′-(4-((3-Methylbut-2-en-1-yl)oxy)benzylidene)isonicotinohydrazide]	23	21	20		5 ± 0.5	25 ± 0.5	54 ± 0.4	10 ± 0.7	18 ± 0.6	29 ± 0.8	50 ± 1.1	16 ± 0.5	24 ± 1	38 ± 1.5	55 ± 0.9	68 ± 1	77 ± 0.8	75 ± 0.8	71 ± 2	89 ± 1.5	
CCCOc1ccc(/C=N/NC(=O)c2ccncc2)cc1OC [NH5, (E)-N′-(3-Methoxy-4-propoxybenzylidene) isonicotinohydrazide]	25	24	22	10 ± 0.6	18 ± 0.6	34 ± 0.3	58 ± 0.6		10 ± 0.5	26 ± 0.5	53 ± 0.6	5 ± 0.4	12 ± 0.4	35 ± 0.7	58 ± 1.1	73 ± 0.8		79 ± 0.8	77 ± 1.5		minimum survival percentage [8]: 36.10 ± 3.45%
CCCOc1ccc(/C=N/NC(=O)c2ccncc2)cc1 [NH6, (E)-N′-(4-Propoxybenzylidene) Isonicotinohydrazide]	23	22	17	5 ± 0.2	14 ± 0.5	28 ± 0.5	50 ± 0.7		10 ± 0.6	23 ± 0.7	52 ± 0.8		5.5 ± 0.5	25 ± 0.5	52 ± 1.6	70 ± 1.1		73 ± 0.7	72 ± 1.2	80 ± 1	LC50 at 24 h [7]: 162 µg/mL (≈ 574 µM); minimum survival percentage [8]: 32.44 ± 2.0%
